Data reported in article PMC6321124, “Hydrophilic Linear Peptide with Histidine and Lysine Residues as a Key Factor Affecting Antifungal Activity” (International Journal of Molecular Sciences, 2018).
In brackets after ≈: the same amount, converted by molar mass. Residues, ends and D or L forms follow the SMILES beside them.

Experiments:
[1] = test system: C. albicans (CCARM 14001, fluconazole-resistant strain); details: CCARM 14001, 48 h, pH 6
F. solani (KCTC 6326) = details: KCTC 6326, 48 h, pH 6
C. albicans (KCTC 7270) = details: KCTC 7270, 48 h, pH 6
[2] = test system: Trichoderma virens (KCTC 16924); details: KCTC 16924, 48 h, pH 6
[3] = test system: Trichoderma viride (KCTC 16992); details: KCTC 16992, 48 h, pH 6
[4] = test system: C. gloeosporioides (KCTC 6169); details: KCTC 6169, 48 h, pH 6
[5] = test system: C. parapsilosis (CCARM 14016); details: CCARM 14016, 48 h, pH 6
[6] = test system: Tricophyton rubrum (KCTC 6345); details: KCTC 6345, 48 h, pH 6
[7] = test system: F. moniliforme (KCTC 6149); details: KCTC 6149, 48 h, pH 6
[8] = test system: F. oxysporum (KCTC 16909); details: KCTC 16909, 48 h, pH 6
[9] = test system: C. albicans (CCARM 14007, amphotericin B-resistant strain); details: CCARM 14007, 48 h, pH 6
[10] = test system: C. albicans (CCARM 14004, fluconazole-resistant strain); details: CCARM 14004, 48 h, pH 6
[11] = test system: Aspergillus flavus (KCTC 6905); details: KCTC 6905, 48 h, pH 6
[12] = test system: C. albicans (CCARM 14020, fluconazole-resistant strain); details: CCARM 14020, 48 h, pH 6
[13] = test system: F. graminearum (KCTC 16656); details: KCTC 16656, 48 h, pH 6
C. krusei (CCARM 14017) = details: CCARM 14017, 48 h, pH 6

| Compound | MIC [1] | MIC (F. solani (KCTC 6326)) | MIC (C. albicans (KCTC 7270)) | MIC [2] | MIC [3] | MIC [4] | MIC [5] | MIC [6] | MIC [7] | MIC [8] | MIC [9] | MIC [10] | MIC [11] | MIC [12] | MIC [13] | MIC (C. krusei (CCARM 14017)) |
| --- | --- | --- | --- | --- | --- | --- | --- | --- | --- | --- | --- | --- | --- | --- | --- | --- |
| NCCCC[C@H](NC(=O)[C@H](CCCCN)NC(=O)[C@@H](N)Cc1c[nH]cn1)C(N)=O [(HKK)1] (H-His-Lys-Lys-NH2) | 1024 µM (≈ 420 µg/mL) | 256 µM (≈ 105 µg/mL) | 1024 µM (≈ 420 µg/mL) | 512 µM (≈ 210 µg/mL) | 256 µM (≈ 105 µg/mL) | 1024 µM (≈ 420 µg/mL) | 1024 µM (≈ 420 µg/mL) | 512 µM (≈ 210 µg/mL) | 256 µM (≈ 105 µg/mL) | 256 µM (≈ 105 µg/mL) | 1024 µM (≈ 420 µg/mL) | 1024 µM (≈ 420 µg/mL) | 256 µM (≈ 105 µg/mL) | 1024 µM (≈ 420 µg/mL) | 512 µM (≈ 210 µg/mL) | 512 µM (≈ 210 µg/mL) |
| NCCCC[C@H](NC(=O)[C@H](CCCCN)NC(=O)[C@H](Cc1c[nH]cn1)NC(=O)[C@H](CCCCN)NC(=O)[C@H](CCCCN)NC(=O)[C@@H](N)Cc1c[nH]cn1)C(N)=O [(HKK)2] (H-HKKHKK-NH2) | 64 µM (≈ 51.5 µg/mL) | 32 µM (≈ 25.7 µg/mL) | 64 µM (≈ 51.5 µg/mL) | 32 µM (≈ 25.7 µg/mL) | 64 µM (≈ 51.5 µg/mL) | 16 µM (≈ 12.9 µg/mL) | 64 µM (≈ 51.5 µg/mL) | 64 µM (≈ 51.5 µg/mL) | 32 µM (≈ 25.7 µg/mL) | 64 µM (≈ 51.5 µg/mL) | 64 µM (≈ 51.5 µg/mL) | 64 µM (≈ 51.5 µg/mL) | 64 µM (≈ 51.5 µg/mL) | 64 µM (≈ 51.5 µg/mL) | 64 µM (≈ 51.5 µg/mL) | 64 µM (≈ 51.5 µg/mL) |
| NCCCC[C@H](NC(=O)[C@H](CCCCN)NC(=O)[C@H](Cc1c[nH]cn1)NC(=O)[C@H](CCCCN)NC(=O)[C@H](CCCCN)NC(=O)[C@H](Cc1c[nH]cn1)NC(=O)[C@H](CCCCN)NC(=O)[C@H](CCCCN)NC(=O)[C@@H](N)Cc1c[nH]cn1)C(N)=O [(HKK)3] (H-HKKHKKHKK-NH2) | 64 µM (≈ 76.6 µg/mL) | 16 µM (≈ 19.2 µg/mL) | 64 µM (≈ 76.6 µg/mL) | 16 µM (≈ 19.2 µg/mL) | 16 µM (≈ 19.2 µg/mL) | 8 µM (≈ 9.58 µg/mL) | 32 µM (≈ 38.3 µg/mL) | 32 µM (≈ 38.3 µg/mL) | 16 µM (≈ 19.2 µg/mL) | 32 µM (≈ 38.3 µg/mL) | 64 µM (≈ 76.6 µg/mL) | 64 µM (≈ 76.6 µg/mL) | 16 µM (≈ 19.2 µg/mL) | 64 µM (≈ 76.6 µg/mL) | 32 µM (≈ 38.3 µg/mL) | 16 µM (≈ 19.2 µg/mL) |
| NCCCC[C@H](NC(=O)[C@H](CCCCN)NC(=O)[C@H](Cc1c[nH]cn1)NC(=O)[C@H](CCCCN)NC(=O)[C@H](CCCCN)NC(=O)[C@H](Cc1c[nH]cn1)NC(=O)[C@H](CCCCN)NC(=O)[C@H](CCCCN)NC(=O)[C@H](Cc1c[nH]cn1)NC(=O)[C@H](CCCCN)NC(=O)[C@H](CCCCN)NC(=O)[C@@H](N)Cc1c[nH]cn1)C(N)=O [(HKK)4] (H-HKKHKKHKKHKK-NH2) | 32 µM (≈ 50.9 µg/mL) | 4 µM (≈ 6.36 µg/mL) | 32 µM (≈ 50.9 µg/mL) | 16 µM (≈ 25.5 µg/mL) | 4 µM (≈ 6.36 µg/mL) | 2 µM (≈ 3.18 µg/mL) | 32 µM (≈ 50.9 µg/mL) | 16 µM (≈ 25.5 µg/mL) | 4 µM (≈ 6.36 µg/mL) | 4 µM (≈ 6.36 µg/mL) | 32 µM (≈ 50.9 µg/mL) | 32 µM (≈ 50.9 µg/mL) | 8 µM (≈ 12.7 µg/mL) | 32 µM (≈ 50.9 µg/mL) | 16 µM (≈ 25.5 µg/mL) | 4 µM (≈ 6.36 µg/mL) |
| NCCCC[C@H](NC(=O)[C@H](CCCCN)NC(=O)[C@H](Cc1c[nH]cn1)NC(=O)[C@H](CCCCN)NC(=O)[C@H](CCCCN)NC(=O)[C@H](Cc1c[nH]cn1)NC(=O)[C@H](CCCCN)NC(=O)[C@H](CCCCN)NC(=O)[C@H](Cc1c[nH]cn1)NC(=O)[C@H](CCCCN)NC(=O)[C@H](CCCCN)NC(=O)[C@H](Cc1c[nH]cn1)NC(=O)[C@H](CCCCN)NC(=O)[C@H](CCCCN)NC(=O)[C@H](Cc1c[nH]cn1)NC(=O)[C@H](CCCCN)NC(=O)[C@H](CCCCN)NC(=O)[C@@H](N)Cc1c[nH]cn1)C(N)=O [(HKK)6] (H-HKKHKKHKKHKKHKKHKK-NH2) | 16 µM (≈ 38 µg/mL) | 2 µM (≈ 4.76 µg/mL) | 16 µM (≈ 38 µg/mL) | 8 µM (≈ 19 µg/mL) | 2 µM (≈ 4.76 µg/mL) | 1 µM (≈ 2.38 µg/mL) | 16 µM (≈ 38 µg/mL) | 8 µM (≈ 19 µg/mL) | 2 µM (≈ 4.76 µg/mL) | 2 µM (≈ 4.76 µg/mL) | 16 µM (≈ 38 µg/mL) | 16 µM (≈ 38 µg/mL) | 4 µM (≈ 9.51 µg/mL) | 16 µM (≈ 38 µg/mL) | 8 µM (≈ 19 µg/mL) | 4 µM (≈ 9.51 µg/mL) |
